# Test results reported in US9168297B2, “Regulation of skin pigmentation by neuregulin-1 (NRG-1)” (The United States of America, as Represented by the …, priority 2010, dated 2015).
# Residues, ends and D or L forms follow the SMILES beside them. *: point of attachment. Cbz = O=C(OCc1ccccc1)*
# Tests used:
# MelanoDerm Skin Model = assay: Melanogenesis in MelanoDerm skin model, L-[14C]tyrosine assay; format: cell-based, human; settings: 30 μM lipoic acid, positive control, means ± SEM, Control 100%
# Excerpt: Fibroblasts regulate the distinctive pigmented and thick morphology of skin on the palms and soles compared to the remainder of the body via a factor they secrete termed DKK1. […] [table]
# [1] = test system: MelanoDerm 3-D reconstructed human skin; assay: Pigmentation of 3-D reconstructed skin (MelanoDerm), L value and microscopy; format: cell-based; settings: dark MelanoDerms, 9 days, NRG-1 50 ng/ml with C39 0.5 μM or CI-1033 2 μM, vs control
# Procedure: Light, Medium, and Dark human epidermal equivalents (MelanoDerm®) were purchased from MatTek Corp. (Ashland, Mass.). MelanoDerms were grown at the air/liquid interface of the maintenance medium MEL-LLMM (MatTek Corp.), and the culture medium was renewed every 2 days. Where noted, MelanoDerms were treated for 9 days with 50 ng/ml NRG-1 (rhNRG-1-β1, R&D Systems, Minneapolis, Minn.) prepared in phosphate-buffered saline (PBS) with 0.1% bovine serum albumin (BSA) and MelanoDerm maintenance medium. The same concentrations of PBS and BSA were used for mock-treated controls.
# For the studies where the MelanoDerms were treated with NRG-1 and/or various pan-ERBB inhibitors, Dark MelanoDerms were first incubated with a pan-ERBB inhibitor (0.5 μM Compound 39, EMD Chemicals, Gibbistown, N.J. or 2 μM CI-1033, Selleck Chemicals LLC, US) for 30 minutes or with vehicle (DMSO) only before treatment with 50 ng/ml NRG-1; identical amounts of DMSO (0.02%) were added to all samples. Treatment was renewed every 2 days in fresh medium and was continued for 9 days.
# Three dimensional (3-D) reconstructed human skin models (termed MelanoDerms) were used to test the effects of NRG-1 on skin pigmentation. Three types of MelanoDerm, ‘light’ ([…]), ‘medium’ ([…]) and ‘dark’ ([…]), were used to compare the effects of NRG-1 on those three types of skin. In preliminary studies to optimize the concentration of NRG-1 (from 10 to 200 ng/ml were tested, FIG. 10), 50 ng/ml was chosen which was consistent with concentrations of NRG-1 used for other cell types by other groups. NRG-1 was added to the MelanoDerm media at 50 ng/ml and the medium was replenished every 2 days. On day 9, the MelanoDerms treated with NRG-1 were compared to controls treated only with vehicle. Pigmentation of the skin was assessed using the L value, higher L values indicating lighter colors. […] It should be noted that relatively small changes in ΔL can represent relatively large changes in visible skin color. For example, the mean L value of White/Caucasian skin is 67, that of Asians, Pacific-Islanders is 65, that of Hispanic/Latinos is 64, and that of American Indian/Alaska Native is 62. […] In the vehicle-treated control MelanoDerms, melanin pigment was more evenly distributed throughout the entire epidermis and no visible melanin accumulation was observed around melanocytes (FIG. 3B). […] Therefore, NRG-1 leads to visible increases in pigmentation in the MelanoDerms which was greater as the skin had more constitutive pigmentation.
# HEM-DP melanocytes = assay: Melanin content assay (melanin/protein); format: cell-based, human; settings: for Pigmentation: 8-mer peptides 100 nM, every day for 9 days, vs vehicle
# Procedure: FIGS. 6A and 6B are bar graphs illustrating the effect of NRG-1 on the pigmentation of cultured human melanocytes. FIG. 6A) Lightly-pigmented (HEM-LP) and FIG. 6B) Darkly-pigmented (HEM-DP) melanocytes were treated with or without NRG-1 (50 ng/ml) for 1, 3, 5 or 9 days and proteins were extracted from each sample. After centrifugation at 10,000 g for 15 minutes, precipitates were analyzed for melanin content, and the supernatants were analyzed for protein content. Results are the average of three studies±SD; statistically significant differences are indicated.
# FIGS. 9A and 9B are digital images illustrating the effect of pan-ERBB inhibitors on NRG-1 action on human melanocytes and MelanoDerms. FIG. 9A) HEM-DP melanocytes were treated for 9 days with 50 ng/ml NRG-1 in the presence of C39 (0.5 μM) or CI-1033 (2 μM) or vehicle (DMSO) alone. The results are the averages of 3 independent studies±SD. FIG. 9B) Dark MelanoDerms were treated for 9 days with 50 ng/ml NRG-1 in the presence of C39 (0.5 μM) or CI-1033 (2 μM) or vehicle (DMSO) alone. L values shown are the average of 3 spots measured in the center of each Melanoderm.
# Melanin contents were determined by dissolving cell pellets overnight at room temperature in 200 μl 1 N NaOH, and melanin concentrations were quantitated by absorbance at 405 nm in a SpectraMax 250 ELISA reader (Molecular Devices) using a standard curve generated from synthetic melanin (Sigma-Aldrich, St. Louis, Mo.). Melanin content is expressed as μg melanin per μg protein. Each study was repeated at least three times.
# The effects of NRG-1 on the pigmentation of human melanocytes were also examined. […] However, on day 9, when the cells had reached confluence, the pigmentation level of NRG-1-treated HEM-LP melanocytes was about 35% higher than the control (FIG. 6A).
# The EGF domain of NRG-1 can activate the NRG-1 receptors. Two exemplary EGF domains of NRG-1 were aligned (SEQ ID NOs: 9 and 10) and 5 different […] peptides within these two sequences were designed (FIG. 12). Darkly-pigmented human epidermal melanocytes (HEM-DP) were treated with each of the […] peptides (100 nM) or the commercially available rhNRG-1 (6.25 nM) or the vehicle only (0.1% BSA in PBS) every other day for 7 days.
# In particular, HEM-DP were treated with each of the 8-mer peptides (WC-6, […], amino acids 3-10 of SEQ ID NO: 10; WC-7, […], amino acids 8-15 of SEQ ID NO: 10; WC-8, […], amino acids 12-19 of SEQ ID NO: 10; WC-9, […], amino acids 16-23 of SEQ ID NO: 10; WC-10, […], amino acids 20-27 of SEQ ID NO: 10; 100 nM) or the full length EGF domain of NRG-1 (WC-11, SEQ ID NO: 10, 100 nM) or the commercially available rhNRG-1 (SEQ ID NO: 11, 6.25 nM) or vehicle only (0.1% BSA in PBS) every day for 9 days.
# ERBB2 = ERBB2 protein level by western blotting in melanocytes; format: cell-based, human; settings: HEM-LP and HEM-DP, NRG-1 50 ng/ml together with MG132 120 nM
# Procedure: FIGS. 7A and 7B are digital images illustrating expression of ERBBs after NRG-1 treatment. FIG. 7A) HEM-LP and HEM-DP melanocytes were treated with or without NRG-1 (50 ng/ml) for 5 days, and levels of ERBB2, ERBB3 or ERBB4 were detected by western blotting. Results shown are representative of three studies. FIG. 7B) Expression of ERBB2 was examined in HEM-LP and in HEM-DP melanocytes after 1 or 9 days or treatment with NRG-1 compared to vehicle-treated controls; the results are representative of two independent studies.
# FIGS. 8A and 8B are digital images illustrating the mechanism of ERBB2 abrogation after NRG-1 treatment. FIG. 8A) ERBB2 mRNA levels in HEM-LP and in HEM-DP melanocytes were detected by RT-PCR after treatment with or without NRG-1 (50 ng/ml) for 1 day. FIG. 8B) MG132 (120 nM) was added to the melanocyte culture medium to inhibit proteasomal degradation during treatment of HEM-LP and HEM-DP melanocytes with or without NRG-1 (50 ng/ml). Proteins were extracted for each sample, and ERBB2 levels were detected by western blotting. Results are representative of three studies.
# Fibroblast cultures in 100-mm dishes were solubilized in appropriate volumes of M-PER mammalian protein extraction reagent (Pierce Biotechnology, Rockford, Ill.) containing a Protease Inhibitor mixture (Roche, Mannheim, Germany) and phosphatase inhibitors. The protein concentration of each extract was measured using a BCA protein assay kit (Pierce, Rockford, Ill.). Cell extracts (20 μg) were separated on 8-16% gradient SDS polyacrylamide gels (Invitrogen, Carlsbad, Calif.), after which proteins were transferred to PVDF membranes (Invitrogen, Carlsbad, Calif.). Membranes were blocked for 1 hour in PBS or Tris buffered saline (TBS) containing 0.1% Tween 20 and 5% (w/v) nonfat dry milk powder and were incubated overnight at 4° C. with the primary antibody in PBS containing 0.1% Tween 20 and 2.5% (w/v) nonfat dry milk powder or in 0.1% Tween-TBS with 5% BSA, depending on the antibody. The following primary antibodies were used: anti-human DKK-1 (0.2 μg/ml), anti-human DKK-3 (0.1 μg/ml), anti-human bFGF (0.1 μg/ml), anti-human SCF (0.1 μg/ml), anti-human mouse monoclonal ERBB3 (1 μg/ml) and anti-human mouse monoclonal ERBB4 (2 μg/ml) antibodies from R&D Systems, neuregulin-1α/β1/2 (C-20) (1:500) and GAPDH (FL-335) (1:10,000) antibodies from Santa Cruz Biotechnology, ERBB2 rabbit monoclonal (1:1000) and phospho-Akt (Ser473) (1:1000) antibodies from Cell Signaling Technology. Membranes were then incubated with an HRP-linked anti-rabbit antibody (GE Healthcare) at 1:10,000 dilution or with an anti-goat antibody (DAKO) at 1:2,000 dilution at room temperature for 1 hour. Antigen-antibody complexes were detected using an ECL-plus Western blotting detection system (GE Healthcare). […]
compound,measurement,setting,value
"O=C(O)CCCC[C@@H]1CCSS1 (racemic) [Lipoic acid, lipoic acid]",Melanogenesis,MelanoDerm Skin Model,2 ± 2%
"C=CC(=O)Nc1cc2c(Nc3ccc(F)c(Cl)c3)ncnc2cc1OCCCN1CCOCC1 [CI-1033, reference compound]","Pigmentation of MelanoDerms, NRG-1 in the presence of ERBB inhibitor",[1],did not increase the pigmentation
same,"Melanin content, inhibitor alone","HEM-DP melanocytes; 9 days, C39 0.5 μM or CI-1033 2 μM alone",did not affect
same,"Melanin content, NRG-1 in the presence of ERBB inhibitor","HEM-DP melanocytes; 9 days, NRG-1 50 ng/ml with C39 0.5 μM or CI-1033 2 μM",remained at the same level as the control
"CC(C)C[C@@H](C=O)NC(=O)[C@H](CC(C)C)NC(=O)[C@H](CC(C)C)NC(=O)OCc1ccccc1 [MG132, reference compound] (Cbz-Leu-Leu-Leu-aldehyde)",Level of ERBB2 protein,ERBB2,returned to the control level
WC-03: 16-mer NRG-1 peptide including amino acids 8-23 of SEQ ID NO: 9 (FMVKDLSNPSRYLCKC),Pigmentation (melanin) compared to control,"HEM-DP melanocytes; 16-mer peptides 100 nM, every other day for 7 days, n=4",highest increase in pigmentation
"WC-9: 8-mer peptide PSRYLCKC, amino acids 16-23 of SEQ ID NO: 10",Pigmentation,HEM-DP melanocytes,statistically significant increases of pigmentation
"WC-10: 8-mer peptide LCKCPNEF, amino acids 20-27 of SEQ ID NO: 10",Pigmentation,HEM-DP melanocytes,statistically significant increases of pigmentation
